# Measurements from EPA's ToxRefDB 2.
# Columns and labels:
# [1] = test system: mouse; settings: Subchronic oral toxicity in rodents, b6c3f1, Water, dose end: 13 week
# [2] = test system: mouse; settings: Carcinogenicity, b6c3f1, Oral, Water, dose end: 2 year, group: systemic
# [3] = test system: rat; settings: Subchronic oral toxicity in rodents, fischer, Water, dose end: 13 week, group: systemic
# [4] = test system: rat; settings: Multigenerational reproductive toxicity study, sprague dawley, Oral, Feed, dose end: 2 generation
# [5] = test system: rat; settings: Prenatal developmental toxicity study, wistar, Oral, Gavage/Intubation, dose end: 8 GD, group: maternal
# [6] = test system: dog; settings: Subchronic oral toxicity in nonrodent, beagle, Feed, dose end: 90 day, group: systemic, systemic / in life observation / clinical signs / pulse/pressure + systemic / organ weight / liver / nos
# [7] = test system: mouse; settings: Carcinogenicity, cd1, Oral, Feed, dose end: 105 week, group: systemic
# [8] = test system: rat; settings: Combined chronic toxicity/carcinogenicity, sprague dawley, Oral, Feed, dose end: 30 month, group: systemic
# [9] = test system: dog; settings: Chronic toxicity; beagle; Oral; Feed; dose end: 52 week; group: systemic; systemic / clinical chemistry / alkaline phosphatase (alp/alk) / alkaline phosphatase (alp/alk) + systemic / clinical chemistry / …
# [10] = test system: dog; settings: Subchronic oral toxicity in nonrodent, beagle, Capsule, dose end: 90 day, group: systemic, systemic / clinical chemistry / alanine aminotransferase (alt/sgpt) / alanine aminotransferase (alt/sgpt) + systemic / clinical chemistry / …
# [11] = test system: rat; settings: Subchronic oral toxicity in rodents, sprague dawley, Gavage/Intubation, dose end: 90 day, group: systemic
# [12] = test system: rat; settings: Multigenerational reproductive toxicity study, sprague dawley, Oral, Gavage/Intubation, dose end: 1 generation
# [13] = group: maternal, reproductive / reproductive performance / estrous cycle / abnormal
# [14] = group: systemic, systemic / in life observation / body weight / body weight + systemic / in life observation / body weight / body weight gain + systemic / in…
# [15] = systemic / in life observation / body weight / body weight + systemic / organ weight / lung / absolute + systemic / pathology microscopic / …
# [16] = systemic / pathology microscopic / liver / angiectasis + systemic / pathology microscopic / liver / eosinophilic focus + systemic / …
# [17] = systemic / hematology / [other] / [other] + systemic / hematology / jolly bodies / jolly bodies + systemic / hematology / leukocyte (wbc) …
# [18] = systemic / hematology / leukocyte (wbc) count differential / leukocyte (wbc) + systemic / hematology / lymphocyte / lymphocyte
# [19] = group: offspring, developmental / developmental landmark / vaginal opening / vaginal opening + systemic / in life observation / body weight / offspring (pup) …
# [20] = group: parental, systemic / in life observation / body weight / body weight + systemic / in life observation / body weight / body weight gain
# [21] = reproductive / reproductive performance / postimplantation loss / postimplantation loss + systemic / in life observation / body weight / …
# [22] = systemic / in life observation / food consumption / food consumption
# [23] = systemic / in life observation / body weight / body weight + systemic / in life observation / body weight / body weight gain + systemic / …
# [24] = systemic / clinical chemistry / thyroxine (t4) / thyroxine (t4), total + systemic / organ weight / liver / absolute + systemic / organ …
# [25] = systemic / in life observation / body weight / body weight gain
# [26] = systemic / in life observation / body weight / body weight gain + systemic / clinical chemistry / cholesterol / cholesterol + systemic / …
# [27] = group: offspring, systemic / organ weight / kidney / absolute + systemic / organ weight / liver / absolute
# [28] = group: offspring, systemic / organ weight / kidney / absolute + systemic / organ weight / liver / absolute + systemic / in life observation / body weight / …
# [29] = group: parental, systemic / organ weight / kidney / absolute + systemic / organ weight / liver / absolute
# [30] = group: parental, systemic / organ weight / kidney / absolute + systemic / organ weight / liver / absolute + systemic / in life observation / body weight / …
# [31] = group: reproductive, reproductive / reproductive performance / reproductive performance other / NOS + reproductive / reproductive performance / fertility / …
smiles,measurement,setting,value
CCOC(N)=O [Urethane],LEL,[1]; [13],147 mg/kg/day
same,LOAEL,[1]; [13],> 1330 mg/kg/day
same,NEL,[1]; [13],44 mg/kg/day
same,NOAEL,[1]; [13],≥ 1330 mg/kg/day
same,LOAEL,[1]; [14],> 1330 mg/kg/day
same,NEL,[1]; [14],44 mg/kg/day
same,NOAEL,[1]; [14],≥ 1330 mg/kg/day
same,LEL,"[1]; group: systemic, systemic / in life observation / body weight / body weight + systemic / in life observation / body weight / body weight gain + systemic / …",147 mg/kg/day
same,LOAEL,[2]; [15],0.325 mg/kg/day
same,NOAEL,[2]; [15],0.105 mg/kg/day
same,LEL,[2]; [16],0.035 mg/kg/day
same,NEL,[2]; [16],< 0.035 mg/kg/day
same,LOAEL,[3]; [17],> 525 mg/kg/day
same,NOAEL,[3]; [17],≥ 525 mg/kg/day
same,LEL,[3]; [18],11 mg/kg/day
same,NEL,[3]; [18],< 11 mg/kg/day
"CC(C)(C)CC(C)(C)c1ccc(O)cc1 [4-(1,1,3,3-Tetramethylbutyl)phenol]",LEL,[4]; [19],100 mg/kg/day
same,LOAEL,[4]; [19],> 100 mg/kg/day
same,NEL,[4]; [19],10 mg/kg/day
same,NOAEL,[4]; [19],≥ 100 mg/kg/day
same,LEL,[4]; [20],100 mg/kg/day
same,LOAEL,[4]; [20],> 100 mg/kg/day
same,NEL,[4]; [20],10 mg/kg/day
same,NOAEL,[4]; [20],≥ 100 mg/kg/day
same,LOAEL,[5]; [21],> 125 mg/kg/day
same,NOAEL,[5]; [21],≥ 125 mg/kg/day
same,LEL,[5]; [22],15.6 mg/kg/day
same,NEL,[5]; [22],< 15.6 mg/kg/day
Clc1ccccc1-c1nnc(-c2ccccc2Cl)nn1 [Clofentezine],LEL,[6],80 mg/kg/day
same,LOAEL,[6],80 mg/kg/day
same,NEL,[6],< 80 mg/kg/day
same,NOAEL,[6],< 80 mg/kg/day
same,LOAEL,[7]; [23],> 544 mg/kg/day
same,NEL,[7]; [23],5 mg/kg/day
same,NOAEL,[7]; [23],≥ 544 mg/kg/day
same,LEL,[7]; systemic / pathology gross / liver / mass,50.7 mg/kg/day
same,LEL,[8]; [24],17.3 mg/kg/day
same,LOAEL,[8]; [24],17.3 mg/kg/day
same,NOAEL,[8]; [24],1.72 mg/kg/day
same,NEL,[8]; systemic / pathology microscopic / liver / hypertrophy + systemic / pathology microscopic / liver / vacuolization,1.72 mg/kg/day
same,LEL,[9],25 mg/kg/day
same,LOAEL,[9],25 mg/kg/day
same,NEL,[9],1.25 mg/kg/day
same,NOAEL,[9],1.25 mg/kg/day
CCOc1ccc2c(c1)C(C)=CC(C)(C)N2 [Ethoxyquin],LEL,[10],4 mg/kg/day
same,LOAEL,[10],4 mg/kg/day
same,NEL,[10],2 mg/kg/day
same,NOAEL,[10],2 mg/kg/day
same,LEL,[11]; [25],40 mg/kg/day
same,LOAEL,[11]; [25],40 mg/kg/day
same,NEL,[11]; [26],20 mg/kg/day
same,NOAEL,[11]; [26],20 mg/kg/day
same,LEL,[12]; [27],75 mg/kg/day
same,NEL,[12]; [27],< 75 mg/kg/day
same,LOAEL,[12]; [28],> 300 mg/kg/day
same,NOAEL,[12]; [28],≥ 300 mg/kg/day
same,LEL,[12]; [29],75 mg/kg/day
same,NEL,[12]; [29],< 75 mg/kg/day
same,LOAEL,[12]; [30],> 300 mg/kg/day
same,NOAEL,[12]; [30],≥ 300 mg/kg/day
same,LEL,[12]; [31],300 mg/kg/day
same,LOAEL,[12]; [31],> 300 mg/kg/day
same,NEL,[12]; [31],150 mg/kg/day
same,NOAEL,[12]; [31],≥ 300 mg/kg/day
